Test results as given in PMC12903857.

Assays:
Type in all cases: binding
14-3-3σ/C-RAF259 [1] = target: T1, 14-3-3σ/C-RAF259 (Homo sapiens, UniProt P31947); assay: Fluorescence anisotropy (FA) compound titration; conditions: 10 nM C-RAF259-FAM 10-mer, 5 μΜ 14-3-3σ, overnight; read-out: Compound titrations EC50 value C-RAF259
Description: (§1) In analogy to our previous work, two orthogonal assays were used for screening (Figure S2). […] Dose responses of compounds were performed in the absence and presence of the C-RAF259 phospho-peptide to distinguish between neutral binders and cooperative molecular glues. The experiment was performed as a time course, with measurements every 8 h, after an 1 h incubation. Additionally, the compounds were tested in a fluorescence anisotropy (FA) assay in the presence of the 5-carboxyfluorescein-(FAM)-labeled C-RAF259 peptide. […] The full dose–response data for all compounds are available in the SI (Tables S2–S5, Figures S5–S8, Figures S15–S18, Figures S25–S32, Figures S37–S39). The dose–response data from both assays were also visually compared in the form of bar graphs. […] For FA experiments, the EC50 values from the overnight measurement were calculated and plotted as bar graphs showing the […] log EC50 value (pEC50). Compounds acting as MGs were expected to show increases in both types of bar graphs.
(§2) transferred in the assay plates.
(§3) The reacton mixtures were incubated
(§4) dispensed in the assay plates.
(§5) incubaton at room temperature .

14-3-3σ = target: T2, 14-3-3σ (Homo sapiens, UniProt P31947); assay: Intact mass spectrometry assay, apo (no peptide); parameters: full-length for mass spectrometry and fluorescence anisotropy assays; made in house; host or cells: E. coli Rosetta 2(DE3)pLysS, pPROEX HTb vector; conditions: 1 μM compound, 100 nM 14-3-3σ
T2 sequence (P31947 1-248): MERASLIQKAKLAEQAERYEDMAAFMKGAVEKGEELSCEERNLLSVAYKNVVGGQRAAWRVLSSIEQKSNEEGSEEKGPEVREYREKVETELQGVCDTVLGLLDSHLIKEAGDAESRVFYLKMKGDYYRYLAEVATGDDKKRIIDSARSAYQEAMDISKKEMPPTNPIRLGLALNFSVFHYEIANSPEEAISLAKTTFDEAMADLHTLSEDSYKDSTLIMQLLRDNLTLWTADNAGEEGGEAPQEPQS
Description: as §1, §2, §3, §4, §5

14-3-3σ/C-RAF259 [2] = target: T1, 14-3-3σ/C-RAF259; assay: Intact mass spectrometry assay with C-RAF259 phospho-peptide; parameters: full-length for mass spectrometry and fluorescence anisotropy assays; made in house; host or cells: E. coli Rosetta 2(DE3)pLysS (14-3-3σ); peptides from Elim Biopharmaceuticals; conditions: 1 μM compound, 100 nM 14-3-3σ, 18 µM peptide
Description: as §1, §2, §3, §4, §5

SMILES	EC50 (14-3-3σ/C-RAF259 [1]) [µM]	% bound, APO, 1h (14-3-3σ) [%]	% bound, APO, 8h (14-3-3σ) [%]	% bound, APO, 16h (14-3-3σ) [%]	% bound, APO, 24h (14-3-3σ) [%]	% bound, C-RAF259 (11mer), 1h (14-3-3σ/C-RAF259 [2]) [%]	% bound, C-RAF259 (11mer), 8h (14-3-3σ/C-RAF259 [2]) [%]	% bound, C-RAF259 (11mer), 16h (14-3-3σ/C-RAF259 [2]) [%]	% bound, C-RAF259 (11mer), 24h (14-3-3σ/C-RAF259 [2]) [%]
O=C(CCl)NCC1CCN(S(=O)(=O)Cc2ccccc2)CC1 [Compound 6]	> 1000	0	1	4.7	4.7	0.9	2.9	6.5	7
O=C(CCl)NCC1CCN(S(=O)(=O)Cc2ccc(F)cc2)CC1 [Compound 7]	> 1000	1	1.9	1.9	2.9	1.5	1.5	2.5	4.7
O=C(CCl)NCC1CCN(S(=O)(=O)Cc2ccc(Cl)cc2)CC1 [Compound 9]	> 1000	0	0	1.5	1.9	0	0.5	2.9	3.2
O=C(CCl)NCC1CCN(S(=O)(=O)c2ccccc2)CC1 [Compound 10]	66 ± 4	4.7	4.7	4.7	4.7	4.7	5.6	5.7	13
O=C(CCl)NCCCC1CCN(S(=O)(=O)c2ccc(Cl)cc2)CC1 [Compound 13]	> 1000	0	1.5	2.5	4.3	0.9	2.9	5.6	14.1
O=C(CCl)NCC1CCN(S(=O)(=O)c2ccc(Cl)nc2)CC1 [Compound 14]	82 ± 6	1.9	2.5	3	15	4.7	7.4	9.9	20.9
O=C(CCl)NCC1CCN(S(=O)(=O)c2ccccc2F)CC1 [Compound 15]	87 ± 9	0.5	1.9	2.4	2.4	3.3	8.2	13.7	23.3
O=C(CCl)NCC1CCN(S(=O)(=O)c2cccc(F)c2)CC1 [Compound 16]	> 150	0	1	1.9	2.9	3.3	8.2	18	32.4
O=C(CCl)NCC1CCN(S(=O)(=O)c2cccc(C(F)(F)F)c2)CC1 [Compound 17]	> 150	0	0	0.5	0.9	1.9	3.4	6.5	12.3
N#Cc1ccc(S(=O)(=O)N2CCC(CNC(=O)CCl)CC2)cc1 [Compound 20]	> 150	0	0.5	1.5	2.9	4.7	12.1	23.9	42.3
COc1ccc(S(=O)(=O)N2CCC(CNC(=O)CCl)CC2)cc1 [Compound 25]	57 ± 9	0.5	1.9	7.4	13.8	10.6	15	27.1	44.4
O=C(CCl)NCC1CCN(S(=O)(=O)c2ccc3c(c2)OCO3)CC1 [Compound 26]	26 ± 3	0	0	1.9	5.2	4.3	11.3	22.6	34.1
O=C(CCl)NCC1CCN(S(=O)(=O)c2ccc(F)cc2F)CC1 [Compound 27]	> 150	1		3.8	5.2	6.9	14.1	27.5	50.3
O=C(CCl)NCC1CCN(S(=O)(=O)c2ccc(F)c(F)c2)CC1 [Compound 28]	88 ± 2	1.9	4.7	6.5	9.1	4.3	15.2	27.5	40
O=C(CCl)NCC1CCN(S(=O)(=O)c2ccc(C(F)(F)F)c(F)c2)CC1 [Compound 32]	4 ± 1								
O=C(CCl)NCC1CCN(S(=O)(=O)C2CCC3(CC2)CC3(F)F)CC1 (stereo not drawn) [Compound 34]	> 1000	0	0.5	0.9	0.9	0.5	0.9	0.9	3.8
O=C(CCl)NCC1CCN(S(=O)(=O)C2CC3(C2)CC(F)(F)C3)CC1 [Compound 35]	> 1000	0	0	0	0.5	0	0	0	3.8
O=C(CCl)NCC1CCN(S(=O)(=O)c2ccc(Br)c(F)c2)CC1 [Compound 37]	5 ± 1								
O=C(CCl)N1CC2(CCN(S(=O)(=O)c3ccc(Br)c(F)c3)CC2)C1 [Compound 49]	47 ± 4	1.9	5.2	13.8	15.9	11.1	32.4	53.8	86.6
O=C(CCl)N1CC2(CCN(S(=O)(=O)c3ccc(Br)c(F)c3)CC2(F)F)C1 [Compound 52]	94 ± 9	2.9	11.3	18.5	28.6	25	45.1	64.3	80.2
O=C(CCl)NC1CC2(CCN(S(=O)(=O)c3ccc(Br)c(F)c3)CC2)C1 [Compound 55]	> 1000	0	0.9	1.9	7.4	6.1	9.9	20.6	34.6
O=C(CCl)N1CC2(C1)CN(S(=O)(=O)c1ccc(C(F)(F)F)c(F)c1)CCO2 [Compound 80]	9 ± 2								
O=C(CCl)N1CC2(CCCN(S(=O)(=O)c3ccc(Br)c(F)c3)C2)C1 [Compound 83]	5 ± 2								
